Assay results from patent US20220144853A1, “IMIDAZOLINE DERIVATIVES AS CXCR4 MODULATORS” (Université de Paris, priority 2019, published 2022).
Structures can show the parent of a compound that is named as a salt.

Row | SMILES | melting point
1 | C1=C(CSC2=NCC(Cc3ccccc3)N2)N2CCCN=C2S1 (stereo not drawn) (as salt: hydrochloride) [Example 48, 3-(((5-benzyl-4,5-dihydro-1H-imidazol-2-yl)thio)methyl)-6,7-dihydro-5H-thiazolo[3,2-a]pyrimidine dihydrochloride] | 50 to 53 °C
2 | CC(C)C1CN=C(SCC2=CSC3=NC(C)(C)CN23)N1 (stereo not drawn) (as salt: hydrochloride) [Example 49, 3-(((5-isopropyl-4,5-dihydro-1H-imidazol-2-yl)thio)methyl)-6,6-dimethyl-5,6-dihydroimidazo[2,1-b]thiazole dihydrochloride] | 234 to 237 °C
3 | CC1(C)CN=C(SCC2=CSC3=NC(c4ccccc4)CN23)N1 (stereo not drawn) (as salt: hydrochloride) [Example 50, 3-(((5,5-dimethyl-4,5-dihydro-1H-imidazol-2-yl)thio)methyl)-6-phenyl-5,6-dihydroimidazo[2,1-b]thiazole dihydrochloride] | 245 to 247 °C
4 | CCCCC1CN=C(SCC2=CSC3=NC(Cc4ccccc4)CN23)N1 (stereo not drawn) (as salt: hydrochloride) [Example 51, 6-benzyl-3-(((5-butyl-4,5-dihydro-1H-imidazol-2-yl)thio)methyl)-5,6-dihydroinidazo[2,1-b]thiazole dihydrochloride] | 150 to 154 °C
5 | CC(C)C1CN2C(CSC3=NCC(C)(C)N3)=CSC2=N1 (stereo not drawn) (as salt: hydrochloride) [Example 52, 3-(((5,5-dimethyl-4,5-dihydro-1H-imidazol-2-yl)thio)methyl)-6-isopropyl-5,6-dihydroimidazo[2,1-b]thiazole dihydrochloride] | 227 to 232 °C
6 | CC1(C)CN2C(CSC3=NCC(c4ccccc4)N3)=CSC2=N1 (stereo not drawn) (as salt: hydrochloride) [Example 53, 6,6-dimethyl-3-(((4-phenyl-4,5-dihydro-1H-imidazol-2-yl)thio)methyl)-5,6-dihydroimidazo[2,1-b]thiazole dihydrochloride] | 110 to 120 °C
7 | CN1CCCN=C1SCC1=CSC2=NC(C)(C)CN12 (as salt: hydrochloride) [Example 57, 6,6-dimethyl-3-(((1-methyl-1,4,5,6-tetrahydropyrimidin-2-yl)thio)methyl)-5,6-dihydroimidazo[2,1-b]thiazole dihydrochloride] | 245 to 249 °C
8 | CC(C)[C@@H]1N=C(SCC2=CSC3=NC(C)(C)CN23)N[C@H]1C(C)C (as salt: hydrochloride) [Example 58, 3-((((4S,5S)-4,5-diisopropyl-4,5-dihydro-1H-imidazol-2-yl)thio)methyl)-6,6-dimethyl-5,6-dihydroimidazo[2,1-b]thiazole dihydrochloride] | 154 to 160 °C
9 | C1=C(CSC2=NCC(Cc3ccccc3)N2)N2CC(Cc3ccccc3)N=C2S1 (stereo not drawn) (as salt: hydrochloride) [Example 60, 6-benzyl-3-(((5-benzyl-4,5-dihydro-1H-imidazol-2-yl)thio)methyl)-5,6-dihydroimidazo[2,1-b]thiazole dihydrochloride] | 117 to 121 °C
10 | C1=C(CSC2=N[C@@H]3CCCC[C@H]3N2)N2CC(Cc3ccccc3)N=C2S1 (stereo partly drawn) (as salt: hydrochloride) [Example 61, 6-benzyl-3-((((3aR,7aR)-3a,4,5,6,7,7a-hexahydro-1H-benzo[d]imidazol-2-yl)thio)methyl)-5,6-dihydroimidazo[2,1-b]thiazole dihydrochloride] | 125 to 130 °C
11 | CC1(C)CN2C(=N1)SC(I)=C2CSC1=NCC(C)(C)N1 (as salt: hydrochloride) [Example 66, 3-(((5,5-dimethyl-4,5-dihydro-1H-imidazol-2-yl)thio)methyl)-2-iodo-6,6-dimethyl-5,6-dihydroimidazo[2,1-b]thiazole dihydrochloride] | 169 to 180 °C (dec.)
12 | CC1(C)CN2C(=N1)SCC2SC1=NCC(C)(C)N1 (stereo not drawn) (as salt: hydrochloride) [Example 70, 3-((5,5-dimethyl-4,5-dihydro-1H-imidazol-2-yl)thio)-6,6-dimethyl-2,3,5,6-tetrahydroimidazo[2,1-b]thiazole dihydrochloride] | 240 to 243 °C
